From article PMC4898691, “Structure of a Berberine Bridge Enzyme-Like Enzyme with an Active Site Specific to the Plant Family Brassicaceae” (PLoS ONE, 2016)

Target: T1, AtBBE-like 28 (Arabidopsis thaliana, UniProt Q9FI21)
T1 construct: gene At5g44440; two chains in asymmetric unit
T1 sequence (Q9FI21 28-533): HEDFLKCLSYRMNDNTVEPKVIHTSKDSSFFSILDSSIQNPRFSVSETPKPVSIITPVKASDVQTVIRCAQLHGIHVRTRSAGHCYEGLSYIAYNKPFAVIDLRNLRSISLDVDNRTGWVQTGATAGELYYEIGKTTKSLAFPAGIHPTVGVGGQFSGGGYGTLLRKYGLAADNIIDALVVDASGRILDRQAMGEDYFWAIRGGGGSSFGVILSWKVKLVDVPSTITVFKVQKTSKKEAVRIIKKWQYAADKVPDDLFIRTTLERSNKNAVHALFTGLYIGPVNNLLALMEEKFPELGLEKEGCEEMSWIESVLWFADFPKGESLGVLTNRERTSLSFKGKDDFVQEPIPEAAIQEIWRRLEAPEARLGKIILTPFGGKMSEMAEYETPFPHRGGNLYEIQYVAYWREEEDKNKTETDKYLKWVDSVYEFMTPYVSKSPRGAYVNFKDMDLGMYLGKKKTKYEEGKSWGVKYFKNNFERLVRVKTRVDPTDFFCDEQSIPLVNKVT
Assay: X-ray crystallography ([…] A)
Assay type: binding
Conditions: covalent; mono-covalent, His111 to flavin 8alpha-position; crystals at 277 K, HEPES pH 7.0, Jeffamine ED 2001

**Q.** Which “X-ray crystallography (1.85 A)” value does the source give for `Cc1cc2nc3c(=O)[nH]c(=O)nc-3n(C[C@H](O)[C@H](O)[C@H](O)COP(=O)(O)OP(=O)(O)OC[C@H]3O[C@@H](n4cnc5c(N)ncnc54)[C@H](O)[C@@H]3O)c2cc1C` [FAD] here?
**A.** the covalent linkage established by the conserved GGHD motif was clearly seen in the crystal structure
